Measured values reported in patent publication US20250099433A1, “COMPOSITION AND METHOD FOR TREATMENT OF GRAM NEGATIVE BACTERIAL INFECTION” (The Research Foundation for the State University of New York, priority 2021, published 2025).
Values after ≈ are worked out from the molar mass of the structure shown. Values joined by “and” are separate entries in the source; they are usually repeats but may differ in a detail not shown here. Equal values may be shown once.

Columns and labels:
FabZ* E. coli = assay type: cell-based, Escherichia coli; details: 1:1000 dilution
From the text: FIG. 4. Post-antibiotic effect of the ecLpxC inhibitors on wild-type and FabZ* E. coli.
This included use of an E. coli strain (FabZ*) containing a hyperactive mutant of the fatty acid biosynthesis O-hydroxyacyl-ACP enzyme (FabZ), and determination of PAEs for wild-type E. coli in the presence of sub-MIC concentrations of macrolides.

P. aeruginosa PAO1 [1] = test: Time-kill assays in P. aeruginosa PAO1; details: PAO1, 4x, 8x and 16xMIC, CAMH media, 37° C.
Protocol: Time-kill assays. […] The experimental data points are the mean values from triplicate, independent measurements, and the error bars represent the standard deviation from the mean.
Time-Kill Assays. […] Cultures were shaken at 37° C. for 6 h, and 100 μL aliquots were taken at each 1 h time interval and plated in serial dilutions in a Mueller-Hinton agar plate.

P. aeruginosa PAO1 [2] = test: MIC by microbroth dilution, P. aeruginosa PAO1; details: Pseudomonas aeruginosa, PAO1, read-out: MIC (μM) (PAO1)
P. aeruginosa PAO1 [3] = test: Post-antibiotic effect (PAE) in P. aeruginosa PAO1; details: 37° C.; for PAE (h) 4x: PAO1, 4xMIC for 1 h; for PAE (h) 8x: PAO1, 8xMIC for 1 h; for PAE (h) 16x: PAO1, 16xMIC for 1 h
Protocol: Post-antibiotic effect of the paLpxC inhibitors on wild-type P. aeruginosa. […] The experimental data points are the mean values from triplicate, independent measurements, and the error bars represent the standard deviation from the mean.
After incubating the plates overnight at 37° C., CFUs were enumerated, and the PAE values were calculated using a standard method where the time for the bacteria to recover 1 log post drug washout compared to the control was determined (FIG. 17, Table 6).
Post-antibiotic Effect (PAE). PAEs were determined using P. aeruginosa PAO1. […] The compound was washed out by diluting the culture 1000-fold into fresh CAMH-II medium, and the regrowth of bacteria was monitored by taking 100 μL aliquots each hour and plating serial dilutions on Muller-Hinton agar plates.

[4] = system: wild-type E. coli (K12 MG1655); test: PAE in wild-type E. coli in the presence of sub-MIC azithromycin; assay type: cell-based, Escherichia coli; details: 16xMIC, 37° C.
From the text: FIG. 6. Post-antibiotic effect in the presence of sub-MIC azithromycin.
The PAE measurements were repeated for wild-type E. coli in the presence of sub-MIC levels of the protein synthesis inhibitor azithromycin.

[5] = system: wild-type E. coli and FabZ* E. coli; test: Time kill assays in E. coli; details: 4xMIC (16xMIC in FIG. 3), CaMH media, 37° C.
Protocol: Each time point was performed in duplicate or triplicate and the entire experiment was performed in triplicate. The data points in the figure are the mean values from the independent measurements and the error bars represent the standard deviation from the mean.
The antimicrobial activity of the compounds was examined. […] The post-antibiotic effect (PAE) of the inhibitors was measured by monitoring the regrowth of bacteria following compound washout. […] Bacterial regrowth was monitored by plating samples as a function of time after wash-out and enumerating CFUs.

[6] = system: FabZ*, hyperactive FabZ strain (L85P); test: microbe, parasite or virus in culture; assay type: cell-based, Escherichia coli; details: Escherichia coli, read-out: MIC (μM) FabZ*
[7] = system: E. coli strain (K-12, MG1655); test: MIC by microbroth dilution, wild-type E. coli; assay type: cell-based, Escherichia coli; details: Escherichia coli; wild-type E. coli K-12 MG1655
[8] = system: wild-type E. coli (K-12 MG1655); test: Post-antibiotic effect (PAE) in wild-type E. coli; assay type: cell-based, Escherichia coli; details: 1:1000 dilution
From the text: FIG. 4. Post-antibiotic effect of the ecLpxC inhibitors on wild-type and FabZ* E. coli. […] PAE data for wild-type E. coli are in panels (a) PT805, (c) PT810 and (e) CHIR-090, and for FabZ* E. coli in (b) PT805, (d) PT810 and (f) CHIR-090.
PAE data for wild-type E. coli are in panels (a) PT805, (c) PT810 and (e) CHIR-090, and for FabZ* E. coli in (b) PT805, (d) PT810 and (f) CHIR-090.

[9] = system: efflux-pump mutant strain (ΔMexABCDXY) (paEP); test: MIC by microbroth dilution, efflux-pump mutant P. aeruginosa; details: Pseudomonas aeruginosa, read-out: MIC (μM) (paEP)
From the text: Bacterial Strains. […] The efflux-pump deficient P. aeruginosa strain (ΔMexABCDXY), N150, was derived from PAO1.
Minimum Inhibitory Concentration (MIC) Measurements.

paLpxC [10] = target: T1, paLpxC (Pseudomonas aeruginosa (strain ATCC 15692 / DSM 22644 / CIP 104116 / JCM 14847 / LMG 12228 / 1C / PRS 101 / PAO1), UniProt P47205); test: Spin column (Penefsky) residence time assay on paLpxC; assay type: binding; details: 37° C.; for tR (min) (Spin column assay): direct displacement
Protocol: FIG. 14. Spin-column assay. A spin-column assay was used to quantify the residence time of inhibitors on paLpxC at 37° C. […] Samples were then subjected to size exclusion chromatography at different times using a Spin-Trap G-25 column (800×g for 2 min). […] Preincubated solutions of enzyme (10 μM) and inhibitor (10 or 20 μM) were diluted 200-fold into a solution of PT855 (1 μM) at 37° C. Aliquots of this solution were withdrawn at various times and subjected to centrifugal gel filtration chromatography using PD SpinTrap™ G-25 columns. The fluorescence of the eluate was quantified, and the data were fit to a single exponential equation to obtain koff (FIG. 14, Tables 4 and 5).
Inhibitor Residence Time Measurements using a Spin Column Assay. […] Subsequently, 10 μL of the incubation mixture was diluted into 2 mL of the same buffer containing 1 μM of PT855, and 100 μL of this mixture was then aliquoted at different time points and loaded onto a PD SpinTrap™ G-25 column (Cytiva) that had been equilibrated with buffer prior to sample loading. […] The fluorescence intensities corresponding to loading diluted EI without the fluorescent competitor and loading the competitor alone were measured separately to determine the dynamic range and endpoint of the assay. […] Rates were calculated by fitting the change in fluorescence intensity over time to a one-phase association equation in GraphPad Prism.

paLpxC [11] = target: T1, paLpxC; test: biochemical; assay type: binding; details: for Ki / tR (min) Fluorescence assay: 37° C.; for Ki: fluorescence competition; for tR (min) Fluorescence assay: tR = 1/koff; for koff: read-out: Koff (s^−1); for kon: read-out: Kon (μM^−1s^−1)

T1 sequence (P47205 1-299): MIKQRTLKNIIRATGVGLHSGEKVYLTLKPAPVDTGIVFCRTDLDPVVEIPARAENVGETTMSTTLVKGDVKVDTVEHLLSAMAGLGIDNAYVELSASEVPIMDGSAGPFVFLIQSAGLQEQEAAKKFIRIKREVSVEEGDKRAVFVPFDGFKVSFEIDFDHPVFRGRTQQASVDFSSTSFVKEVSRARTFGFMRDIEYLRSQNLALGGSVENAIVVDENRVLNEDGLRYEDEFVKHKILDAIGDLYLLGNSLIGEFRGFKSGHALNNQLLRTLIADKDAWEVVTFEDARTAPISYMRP

| SMILES | reduction of the starting log CFU/mL of the bacterial culture (P. aeruginosa PAO1 [1]) | MIC (P. aeruginosa PAO1 [2]) [µM] | PAE (h) 4x (P. aeruginosa PAO1 [3]) | PAE (h) 8x (P. aeruginosa PAO1 [3]) [h] | PAE (h) 16x (P. aeruginosa PAO1 [3]) [h] | MIC [9] [µM] | tR (min) (Spin column assay) (paLpxC [10]) | Ki (paLpxC [11]) [pM] | tR (min) Fluorescence assay (paLpxC [11]) | koff (paLpxC [11]) [s⁻¹] | kon (paLpxC [11]) [µM⁻¹ s⁻¹] | further results |
| --- | --- | --- | --- | --- | --- | --- | --- | --- | --- | --- | --- | --- |
| CC(CCn1ccc(-c2ccc(-n3nccn3)cc2)cc1=O)(C(=O)NO)S(C)(=O)=O (racemic) [PT805, 4-(4-(4-(2H-1,2,3-Triazol-2-yl)phenyl)-2-oxopyridin-1(2H)-yl)-N-hydroxy-2-methyl-2-(methylsulfonyl)butanamide] | more than 3 logs | 1.56 (≈ 0.673 µg/mL) | 1.4 ± 0.1 h | 2.2 ± 0.3 | 3.4 ± 0.2 | 0.4 (≈ 0.173 µg/mL) | – | – | – | – | – | PAE (h) 1x, FabZ* (FabZ* E. coli; 1xMIC for 1 h): 0.8 ± 0.1 h; PAE (h) 4x, FabZ* (FabZ* E. coli; 4xMIC for 1 h): 1.53 ± 0.13 h and 1.5 ± 0.1 h; PAE (h) 16x, FabZ* (FabZ* E. coli; 16xMIC for 1 h): 2.1 ± 0.2 h; PAE (h) (sub-MIC AZ) 16x(0.2) ([4]; then media with 0.2xMIC azithromycin): 1.4 ± 0.1 h; PAE (h) (sub-MIC AZ) 16x(0.4) ([4]; then media with 0.4xMIC azithromycin): 2.4 ± 0.1 h; reduction of the starting log CFU/mL of the bacterial culture [5]: greater than 3 logs; MIC [6]: 0.019 µM (≈ 0.0082 µg/mL); MIC [7]: 0.16 µM (≈ 0.069 µg/mL); PAE (h) 1x, Wild-type ([8]; 1xMIC for 1 h): 0 h; PAE (h) 4x, Wild-type ([8]; 4xMIC for 1 h): 0 h; PAE (h) 16x, Wild-type ([8]; 16xMIC for 1 h): 0 h |
| CC(CCn1ccc(-c2ccccc2)cc1=O)(C(=O)NO)S(C)(=O)=O (racemic) [PT901, N-hydroxy-2-methyl-2-(methylsulfonyl)-4-(2-oxo-4-phenylpyridin-1(2H)-yl)butanamide] | more than 3 logs | 3.12 (≈ 1.14 µg/mL) | 0.7 h and 0.7 ± 0.1 h | 1.1 ± 0.1 | 1.3 ± 0.1 | 0.2 (≈ 0.0729 µg/mL) | – | – | – | – | – | – |
| CC(CCn1ccc(-c2ccc(-c3cn(CC4CC4)nn3)cc2)cc1=O)(C(=O)NO)S(C)(=O)=O (racemic) [PT908, 4-(4-(4-(1-(cyclopropylmethyl)-1H-1,2,3-triazol-4-yl)phenyl)-2-oxopyridin-1(2H)-yl)-N-hydroxy-2-methyl-2-(methylsulfonyl)butanamide] | more than 3 logs | 3.12 (≈ 1.52 µg/mL) | 1.6 ± 0.1 h | 2.2 ± 0.1 | 3.1 ± 0.1 | 0.4 (≈ 0.194 µg/mL) | 190.6 ± 92.0 min | 10.2 ± 4.3 | 66.9 ± 8.6 min and 67.0 ± 8.6 min | 0.00025 ± 3e-05 | 26.4 ± 6.3 | – |
| CC(CCn1ccc(-c2ccc(-c3cn(Cc4ccc(F)cc4)nn3)cc2)cc1=O)(C(=O)NO)S(C)(=O)=O (racemic) [PT909, 4-(4-(4-(1-(4-fluorobenzyl)-1H-1,2,3-triazol-4-yl)phenyl)-2-oxopyridin-1(2H)-yl)-N-hydroxy-2-methyl-2-(methylsulfonyl)butanamide] | more than 3 logs | 1.56 (≈ 0.842 µg/mL) | 1.7 ± 0.1 h | 2.5 ± 0.1 | 3.5 ± 0.2 | 0.05 (≈ 0.027 µg/mL) | 106 ± 25 min and 106.2 ± 25.0 min | 8 ± 2.3 | 68.2 ± 9.6 min | 0.00025 ± 3e-05 | 33.8 ± 13.6 | k (min^−1), spin-column assay (paLpxC [10]; first-order fit): 0.009 ± 0.002 min⁻¹ |
